Measured values reported in PubChem BioAssay AID1963440 (Molecular Pharmacology Branch, DTP, NCI, 2024).
pIC50: −log10 of the molar value.

System: NCI-H1417 complex spheroids, growth % test/control
Experiment: Anticancer human tumor NCI-H1417 cell line growth inhibition [Asc];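 further: spheroids exposed to compounds for 7 days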;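 on viability, T/C: 100% = DMSO vehicle control wells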
Details: for pIC50: curve of first compound; for viability, T/C: stronger effect = lower value; active means viability on the fitted dose curve at most 10% of control; inactive means the rest
Procedure, shortened: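 Tumor cells were grown as complex spheroids with human endothelial cells (HUVEC) and human mesenchymal stem cells as stroma. Agents were tested alone and in combination, in half-log steps down from the clinical Cmax, or from 10 microM where Cmax was unknown.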

[1] = second compound 0.03 µM, first compound 0.0316 µM
[2] = second compound 0.03 µM, first compound 0.1 µM
[3] = second compound 0.0949 µM, first compound 0.0316 µM
[4] = second compound 0.0949 µM, first compound 0.1 µM
[5] = second compound 0.3 µM, first compound 0.0316 µM
[6] = second compound 0.3 µM, first compound 0.1 µM
[7] = second compound 0.949 µM, first compound 0.0316 µM
[8] = second compound 0.949 µM, first compound 0.1 µM
[9] = second compound 3 µM, first compound 0.0316 µM
[10] = second compound 3 µM, first compound 0.1 µM

C=C(F)C(=O)N1CCN(c2nc(OCC3CCCN3C)nc3c2CCN(c2cccc4cccc(Cl)c24)C3)CC1CC#N (stereo not given) + CCN1C(C(=O)NC23CCC(C(=O)O)(CC2)CC3)C(c2cccc(Cl)c2F)C2(C(=O)Nc3cc(Cl)ccc32)C12CCCCC2
inactive: viability, T/C [1] 107% | viability, T/C [2] 111% | viability, T/C (second compound 0.03 µM, first compound 0.316 µM) 102% | viability, T/C (second compound 0.03 µM, first compound 1 µM) 95.4% | viability, T/C (second compound 0.03 µM, first compound 3.16 µM) 55.8% | viability, T/C [3] 97.9% | viability, T/C [4] 93.6% | viability, T/C (second compound 0.0949 µM, first compound 0.316 µM) 100% | viability, T/C (second compound 0.0949 µM, first compound 1 µM) 91% | viability, T/C (second compound 0.0949 µM, first compound 3.16 µM) 51.3% | viability, T/C [5] 103% | viability, T/C [6] 98.5% | viability, T/C (second compound 0.3 µM, first compound 0.316 µM) 97.4% | viability, T/C (second compound 0.3 µM, first compound 1 µM) 87% | viability, T/C (second compound 0.3 µM, first compound 3.16 µM) 52.3% | viability, T/C [7] 100% | viability, T/C [8] 102% | viability, T/C (second compound 0.949 µM, first compound 0.316 µM) 85.5% | viability, T/C (second compound 0.949 µM, first compound 1 µM) 82.4% | viability, T/C (second compound 0.949 µM, first compound 3.16 µM) 44.9% | viability, T/C [9] 93.3% | viability, T/C [10] 89.9% | viability, T/C (second compound 3 µM, first compound 0.316 µM) 86.1% | viability, T/C (second compound 3 µM, first compound 1 µM) 79.1% | viability, T/C (second compound 3 µM, first compound 3.16 µM) 37.8%
5.48: pIC50 (second compound 0.3 µM)
5.56: pIC50 (second compound 0.949 µM)
active: viability, T/C (second compound 0.03 µM, first compound 10 µM) 0.19% | viability, T/C (second compound 0.0949 µM, first compound 10 µM) 0.19% | viability, T/C (second compound 0.3 µM, first compound 10 µM) 0.17% | viability, T/C (second compound 0.949 µM, first compound 10 µM) 0.19% | viability, T/C (second compound 3 µM, first compound 10 µM) 0.4%
5.45: pIC50 (second compound 0.03 µM)
5.65: pIC50 (second compound 3 µM)
5.49: pIC50 (second compound 0.0949 µM)

Cn1ncnc1[C@H]1c2n[nH]c(=O)c3cc(F)cc(c23)N[C@@H]1c1ccc(F)cc1 + CCN1C(C(=O)NC23CCC(C(=O)O)(CC2)CC3)C(c2cccc(Cl)c2F)C2(C(=O)Nc3cc(Cl)ccc32)C12CCCCC2
8.00: pIC50 (second compound 3 µM)
8.02: pIC50 (second compound 0.3 µM)
7.89: pIC50 (second compound 0.949 µM)
7.86: pIC50 (second compound 0.0949 µM)
inactive: viability, T/C (second compound 0.03 µM, first compound 0.000316 µM) 99.3% | viability, T/C (second compound 0.03 µM, first compound 0.001 µM) 94% | viability, T/C (second compound 0.03 µM, first compound 0.00316 µM) 87.5% | viability, T/C (second compound 0.03 µM, first compound 0.01 µM) 66% | viability, T/C [1] 52.6% | viability, T/C [2] 42% | viability, T/C (second compound 0.0949 µM, first compound 0.000316 µM) 91.8% | viability, T/C (second compound 0.0949 µM, first compound 0.001 µM) 91.7% | viability, T/C (second compound 0.0949 µM, first compound 0.00316 µM) 90% | viability, T/C (second compound 0.0949 µM, first compound 0.01 µM) 52.3% | viability, T/C [3] 49.9% | viability, T/C [4] 38.1% | viability, T/C (second compound 0.3 µM, first compound 0.000316 µM) 94.5% | viability, T/C (second compound 0.3 µM, first compound 0.001 µM) 90.4% | viability, T/C (second compound 0.3 µM, first compound 0.00316 µM) 79.2% | viability, T/C (second compound 0.3 µM, first compound 0.01 µM) 48.5% | viability, T/C [5] 43.6% | viability, T/C [6] 39.9% | viability, T/C (second compound 0.949 µM, first compound 0.000316 µM) 83.6% | viability, T/C (second compound 0.949 µM, first compound 0.001 µM) 87.8% | viability, T/C (second compound 0.949 µM, first compound 0.00316 µM) 75.8% | viability, T/C (second compound 0.949 µM, first compound 0.01 µM) 55.1% | viability, T/C [7] 34.4% | viability, T/C [8] 34.8% | viability, T/C (second compound 3 µM, first compound 0.000316 µM) 80% | viability, T/C (second compound 3 µM, first compound 0.001 µM) 80.8% | viability, T/C (second compound 3 µM, first compound 0.00316 µM) 76.3% | viability, T/C (second compound 3 µM, first compound 0.01 µM) 49.6% | viability, T/C [9] 39.6% | viability, T/C [10] 34.5%
7.44: pIC50 (second compound 0.03 µM)

NC(=O)C(=Cn1cnc(-c2cc(C(F)(F)F)cc(C(F)(F)F)c2)n1)c1cncnc1 + CNC(C)C(=O)NC1CN(S(=O)(=O)c2cccc(S(=O)(=O)N3CCC4CCC(C(=O)NC(c5ccccc5)c5ccccc5)N4C(=O)C(NC(=O)C(C)NC)C3)c2)CCC2CCC(C(=O)NC(c3ccccc3)c3ccccc3)N2C1=O
6.52: pIC50 (second compound 0.0316 µM)
< 6.52: pIC50 (second compound 0.01 µM)
inactive: viability, T/C (second compound 0.01 µM, first compound 0.000949 µM) 103% | viability, T/C (second compound 0.01 µM, first compound 0.003 µM) 93.3% | viability, T/C (second compound 0.01 µM, first compound 0.00949 µM) 99.5% | viability, T/C (second compound 0.01 µM, first compound 0.03 µM) 103% | viability, T/C (second compound 0.01 µM, first compound 0.0949 µM) 89.6% | viability, T/C (second compound 0.01 µM, first compound 0.3 µM) 63.3% | viability, T/C (second compound 0.0316 µM, first compound 0.000949 µM) 111% | viability, T/C (second compound 0.0316 µM, first compound 0.003 µM) 94.2% | viability, T/C (second compound 0.0316 µM, first compound 0.00949 µM) 93% | viability, T/C (second compound 0.0316 µM, first compound 0.03 µM) 102% | viability, T/C (second compound 0.0316 µM, first compound 0.0949 µM) 83.5% | viability, T/C (second compound 0.0316 µM, first compound 0.3 µM) 49.6% | viability, T/C (second compound 0.1 µM, first compound 0.000949 µM) 89.3% | viability, T/C (second compound 0.1 µM, first compound 0.003 µM) 104% | viability, T/C (second compound 0.1 µM, first compound 0.00949 µM) 105% | viability, T/C (second compound 0.1 µM, first compound 0.03 µM) 90.2% | viability, T/C (second compound 0.1 µM, first compound 0.0949 µM) 76% | viability, T/C (second compound 0.1 µM, first compound 0.3 µM) 47.8% | viability, T/C (second compound 0.316 µM, first compound 0.000949 µM) 110% | viability, T/C (second compound 0.316 µM, first compound 0.003 µM) 98.7% | viability, T/C (second compound 0.316 µM, first compound 0.00949 µM) 112% | viability, T/C (second compound 0.316 µM, first compound 0.03 µM) 92.2% | viability, T/C (second compound 0.316 µM, first compound 0.0949 µM) 86.7% | viability, T/C (second compound 0.316 µM, first compound 0.3 µM) 45.1% | viability, T/C (second compound 1 µM, first compound 0.000949 µM) 91.5% | viability, T/C (second compound 1 µM, first compound 0.003 µM) 92.7% | viability, T/C (second compound 1 µM, first compound 0.00949 µM) 93% | viability, T/C (second compound 1 µM, first compound 0.03 µM) 94.8% | viability, T/C (second compound 1 µM, first compound 0.0949 µM) 86.9% | viability, T/C (second compound 1 µM, first compound 0.3 µM) 42.6%
6.56: pIC50 (second compound 0.1 µM)
6.58: pIC50 (second compound 0.316 µM)
6.60: pIC50 (second compound 1 µM)
